Source: patent publication US12162997B2, “Facile assembly of soft nanoarchitectures and co-loading of hydrophilic and hydrophobic molecules via flash nanoprecipitation” (Northwestern University, priority 2016, dated 2024)
Where two headings read alike, the source gives them in different places.

Experiments:
[1] = Loading efficiency of cargo into polymersomes by fluorescence; format: physicochemical; settings: FNP, single cargo, FIG. 4A
Description: The loading efficiency of the target molecule in the nanocarriers by the methods of the present invention is measured as the ratio of target molecule encapsulated within the nanocarrier to the total amount of target molecule available for loading in the initial solution. The loading efficiency is typically greater than about 40% for both proteins and hydrophobic molecules (i.e., […], about 40%, about 45%, about 50%, about 60%, about 70%, about 80%, about 85%, about 90%, or any percentages in between). In some embodiments of the invention, the loading efficiency is greater than at least 45%.
Nanocarriers were formed using the confined impingement jets (CIJ) mixer described by Han et al. PEG-bl-PPS copolymers and hydrophobic molecules to be loaded within polymersomes were dissolved in 500 μL of tetrahydrofuran (THF) and placed into a 1 mL plastic disposable syringe. […] For fluorescence measurements, samples were taken both before and after column purification to assess loading efficiency. […]
Fluorescence and absorbance measurements were taken on a SpectraMax M3 microplate reader (Molecular Devices). All readings were taken in black-walled clear bottom 96-well plates (Corning 07-200-567), at 100 μL volumes. All readings were normalized to a 100 μL 1×PBS blank control. […] NBT diformazan was detected via absorbance at 620 nm.

[2] = ZINC15 database, cited from earlier work

Row | loading efficiency into polymersomes [1] | Compound | logP Values [2] | logP Values ([2]; listed as calcein)
1 | lowest loading efficiency | O=C(O)CN(CC(=O)O)Cc1cc2c(cc1O)Oc1cc(O)c(CN(CC(=O)O)CC(=O)O)cc1C21OC(=O)c2ccccc21 [Calcein, calcein] | 1.608 | 1.6
2 | very high loading efficiencies | CCOC(=O)c1ccccc1-c1c2cc(Br)c(=O)c(Br)c-2oc2c(Br)c([O-])c(Br)cc12.[K+] [Ethyl Eosin, ethyl eosin] | – | –
3 | – | CO[C@H]1C[C@@H]2CC[C@@H](C)[C@@](O)(O2)C(=O)C(=O)N2CCCC[C@H]2C(=O)O[C@H]([C@H](C)C[C@@H]2CC[C@@H](O)[C@H](OC)C2)CC(=O)[C@H](C)/C=C(\C)[C@@H](O)[C@@H](OC)C(=O)[C@H](C)C[C@H](C)/C=C/C=C/C=C/1C [Rapamycin, rapamycin] | 6.181 | –
